In PubChem BioAssay (NCI):
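Assay format: 96-well plates, 48-hour exposure. Here, GI50 denotes the concentration required for 50% inhibition of growth. TGI is the concentration that stops growth completely.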

Experiments:
Assay in all cases: inhibition of tumour cell growth, NCI panel, 48 h
[1] = test system: 786-0 renal
[2] = test system: A498 renal
[3] = test system: A549 NSCLC
[4] = test system: ACHN renal
[5] = test system: BT-549 breast
[6] = test system: CAKI-1 renal
[7] = test system: CCRF-CEM leukemia
[8] = test system: COLO 205 colon
[9] = test system: DU-145 prostate
[10] = test system: EKVX NSCLC
[11] = test system: HCC-2998 colon
[12] = test system: HCT-116 colon
[13] = test system: HCT-15 colon
[14] = test system: HL-60(TB) leukemia
[15] = test system: HOP-62 NSCLC
[16] = test system: HOP-92 NSCLC
[17] = test system: HS 578T breast
[18] = test system: HT29 colon
[19] = test system: IGROV1 ovarian
[20] = test system: K-562 leukemia
[21] = test system: KM12 colon
[22] = test system: LOX IMVI melanoma
[23] = test system: M14 melanoma
[24] = test system: MALME-3M melanoma
[25] = test system: MCF7 breast
[26] = test system: MDA-MB-231 breast
[27] = test system: MDA-MB-435
[28] = test system: MOLT-4 leukemia
[29] = test system: NCI-H226 lung
[30] = test system: NCI-H23 lung
[31] = test system: NCI-H460 lung
[32] = test system: NCI-H522 lung
[33] = test system: NCI/ADR-RES ovarian
[34] = test system: OVCAR-3 ovarian
[35] = test system: OVCAR-4 ovarian
[36] = test system: OVCAR-5 ovarian
[37] = test system: OVCAR-8 ovarian
[38] = test system: PC-3 prostate
[39] = test system: RPMI-8226 leukemia
[40] = test system: RXF 393 renal
[41] = test system: SF-268 CNS
[42] = test system: SF-295 CNS
[43] = test system: SF-539 CNS
[44] = test system: SK-MEL-2 melanoma
[45] = test system: SK-MEL-28 melanoma
[46] = test system: SK-MEL-5 melanoma
[47] = test system: SK-OV-3 ovarian
[48] = test system: SN12C renal
[49] = test system: SNB-19 CNS
[50] = test system: SNB-75 CNS
[51] = test system: SR leukemia
[52] = test system: SW-620 colon
[53] = test system: T-47D breast
[54] = test system: TK-10 renal
[55] = test system: U251 CNS
[56] = test system: UACC-257 melanoma
[57] = test system: UACC-62 melanoma
[58] = test system: UO-31 renal

## CCN(C)S(=O)(=O)Nc1cccc(Nc2ncnc3cc(NC(=O)CCl)ccc23)c1Cl
[1]
  GI50: 0.973 µM
  TGI: 4.04 µM
[2]
  GI50: 5.02 µM
  TGI: 24.8 µM
[3]
  GI50: 6.18 µM
  TGI: 16.3 µM
[4]
  GI50: 3.38 µM
  TGI: 7.67 µM
[5]
  GI50: 2.54 µM
  TGI: 6.66 µM
[6]
  GI50: 3.15 µM
  TGI: 8.5 µM
[7]
  GI50: 0.656 µM
  TGI: 3.77 µM
[8]
  GI50: 2.5 µM
  TGI: 6.51 µM
[9]
  GI50: 3.69 µM
  TGI: 8.86 µM
[10]
  GI50: 3.9 µM
  TGI: 13.6 µM
[11]
  GI50: 3.89 µM
  TGI: 9.57 µM
[12]
  GI50: 1.07 µM
  TGI: 5.04 µM
[13]
  GI50: 1.04 µM
  TGI: 5.52 µM
[14]
  GI50: 4.74 µM
  TGI: 11.3 µM
[15]
  GI50: 3.42 µM
  TGI: 7.73 µM
[16]
  GI50: 3.4 µM
  TGI: 7.95 µM
[17]
  GI50: 3.55 µM
  TGI: 18.6 µM
[18]
  GI50: 1.33 µM
  TGI: 4.83 µM
[19]
  GI50: 3.5 µM
  TGI: 8.62 µM
[20]
  GI50: 1.1 µM
  TGI: > 25 µM
[21]
  GI50: 4.39 µM
  TGI: 12.2 µM
[22]
  GI50: 1.01 µM
  TGI: 4.44 µM
[23]
  GI50: 1.77 µM
  TGI: 7.34 µM
[24]
  GI50: 1.42 µM
  TGI: 5.62 µM
[25]
  GI50: 1.11 µM
  TGI: 8.33 µM
[26]
  GI50: 2.59 µM
  TGI: 7.49 µM
[27]
  GI50: 1.92 µM
  TGI: 6.44 µM
[28]
  GI50: 0.926 µM
  TGI: 8.83 µM
[29]
  GI50: 3.68 µM
  TGI: 12.6 µM
[30]
  GI50: 2.54 µM
  TGI: 7.88 µM
[31]
  GI50: 3.57 µM
  TGI: 8.6 µM
[32]
  GI50: 0.693 µM
  TGI: 2.03 µM
[33]
  GI50: 9.17 µM
  TGI: > 25 µM
[34]
  GI50: 3.76 µM
  TGI: 7.8 µM
[35]
  GI50: 3.53 µM
  TGI: 8.75 µM
[36]
  GI50: 2.62 µM
  TGI: 6.76 µM
[37]
  GI50: 5.18 µM
  TGI: 17.6 µM
[38]
  GI50: 2.97 µM
  TGI: 8.32 µM
[39]
  GI50: 1.21 µM
  TGI: 5.42 µM
[40]
  GI50: 3.57 µM
  TGI: 7.42 µM
[41]
  GI50: 2.84 µM
  TGI: 7.72 µM
[42]
  GI50: 3.5 µM
  TGI: 7.4 µM
[43]
  GI50: 3.43 µM
  TGI: 6.77 µM
[44]
  GI50: 4.36 µM
  TGI: 14.3 µM
[45]
  GI50: 3.92 µM
  TGI: 15.8 µM
[46]
  GI50: 3.43 µM
  TGI: 7.83 µM
[47]
  GI50: 5.58 µM
  TGI: 19.1 µM
[48]
  GI50: 1.08 µM
  TGI: 4.46 µM
[49]
  GI50: 2.99 µM
  TGI: 7.18 µM
[50]
  GI50: 3.36 µM
  TGI: 7.67 µM
[51]
  GI50: 0.824 µM
  TGI: 7.76 µM
[52]
  GI50: 1.07 µM
  TGI: 4.52 µM
[53]
  GI50: 5.01 µM
  TGI: 13.2 µM
[54]
  GI50: 4.64 µM
  TGI: 13.3 µM
[55]
  GI50: 0.611 µM
  TGI: 1.64 µM
[56]
  GI50: 3.59 µM
  TGI: 15.8 µM
[57]
  GI50: 1.18 µM
  TGI: 4.46 µM
[58]
  GI50: 4.17 µM
  TGI: 7.93 µM
